# Results published in ChEMBL document CHEMBL1201862, “PubChem BioAssay data set” (2004).
#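 The compound was tested at five concentrations on cells cultured in 96-well plates, with a 48-hour exposure period. The concentration for 50% growth inhibition is given as GI50.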 Active and inactive are the calls of the source. Cut-off read from the data, not from the text of the source: active = GI50 up to about 1.1 µM and inactive = higher.
# Experiments:
# Assay in all cases: NCI tumour cell line growth inhibition, 48 h
# [1] = test system: MDA-MB-231
# [2] = test system: SF-539
# [3] = test system: MCF7
# [4] = test system: OVCAR-3
# [5] = test system: A498
# [6] = test system: DU-145
# [7] = test system: Hs-578T
# [8] = test system: SF-268
# [9] = test system: K562
# [10] = test system: SK-OV-3
# [11] = test system: KM12
# [12] = test system: U-251
# [13] = test system: Malme-3M
# [14] = test system: RXF 393
# [15] = test system: HCT-116
# [16] = test system: BT-549
# [17] = test system: COLO 205
# [18] = test system: HCT-15
# [19] = test system: NCI-H522
# [20] = test system: OVCAR-5
# [21] = test system: SK-MEL-28
# [22] = test system: OVCAR-4
# [23] = test system: PC-3
# [24] = test system: UO-31
# [25] = test system: MDA-N
# [26] = test system: NCI-H226
# [27] = test system: HCC 2998
# [28] = test system: NCI-H460
# [29] = test system: SW-620
# [30] = test system: A549
# [31] = test system: T47D
# [32] = test system: SNB-75
# [33] = test system: NCI/ADR-RES
# [34] = test system: NCI-H23
# [35] = test system: MOLT-4
# [36] = test system: SN12C
# [37] = test system: HOP-62
# [38] = test system: RPMI-8226
# [39] = test system: CAKI-1
# [40] = test system: HT-29
# [41] = test system: SK-MEL-2
# [42] = test system: HL-60
# [43] = test system: UACC-62
# [44] = test system: LOX IMVI
# [45] = test system: MDA-MB-435
# [46] = test system: TK-10
# [47] = test system: IGROV-1
# [48] = test system: OVCAR-8
# [49] = test system: SF-295
# [50] = test system: M14
# [51] = test system: EKVX
# [52] = test system: 786-0
# [53] = test system: UACC-257
# [54] = test system: SK-MEL-5
# [55] = test system: HOP-92
# [56] = test system: ACHN
# [57] = test system: CCRF-CEM
# [58] = test system: SNB-19
compound,measurement,setting,value
Cn1c(=O)c2[nH]c(N=O)nc2n(C)c1=O,GI50,[1],> 100 µM (inactive)
same,GI50,[2],> 100 µM (inactive)
same,GI50,[3],> 100 µM (inactive)
same,GI50,[4],> 100 µM (inactive)
same,GI50,[5],> 100 µM (inactive)
same,GI50,[6],> 100 µM (inactive)
same,GI50,[7],> 100 µM (inactive)
same,GI50,[8],> 100 µM (inactive)
same,GI50,[9],> 100 µM (inactive)
same,GI50,[10],> 100 µM (inactive)
same,GI50,[11],> 100 µM (inactive)
same,GI50,[12],> 100 µM (inactive)
same,GI50,[13],> 100 µM (inactive)
same,GI50,[14],> 100 µM (inactive)
same,GI50,[15],> 100 µM (inactive)
same,GI50,[16],> 100 µM (inactive)
same,GI50,[17],> 100 µM (inactive)
same,GI50,[18],> 100 µM
same,GI50,[19],> 100 µM (inactive)
same,GI50,[20],> 100 µM (inactive)
same,GI50,[21],> 100 µM (inactive)
same,GI50,[22],> 100 µM (inactive)
same,GI50,[23],> 100 µM (inactive)
same,GI50,[24],> 100 µM (inactive)
same,GI50,[25],> 100 µM (inactive)
same,GI50,[26],> 100 µM (inactive)
same,GI50,[27],> 100 µM (inactive)
same,GI50,[28],> 100 µM (inactive)
same,GI50,[29],> 100 µM (inactive)
same,GI50,[30],> 100 µM (inactive)
same,GI50,[31],> 100 µM (inactive)
same,GI50,[32],> 100 µM (inactive)
same,GI50,[33],> 100 µM (inactive)
same,GI50,[34],> 100 µM (inactive)
same,GI50,[35],> 100 µM (inactive)
same,GI50,[36],> 100 µM (inactive)
same,GI50,[37],> 100 µM (inactive)
same,GI50,[38],> 100 µM (inactive)
same,GI50,[39],> 100 µM (inactive)
same,GI50,[40],> 100 µM (inactive)
same,GI50,[41],> 100 µM (inactive)
same,GI50,[42],> 100 µM (inactive)
same,GI50,[43],> 100 µM (inactive)
same,GI50,[44],> 100 µM (inactive)
same,GI50,[45],> 100 µM (inactive)
same,GI50,[46],> 100 µM (inactive)
same,GI50,[47],> 100 µM (inactive)
same,GI50,[48],> 100 µM (inactive)
same,GI50,[49],> 100 µM (inactive)
same,GI50,[50],> 100 µM (inactive)
same,GI50,[51],> 100 µM (inactive)
same,GI50,[52],> 100 µM (inactive)
same,GI50,[53],> 100 µM (inactive)
CCOC(=O)c1nc2ccc(C(F)(F)F)cc2nc1Nc1ccc(F)cc1,GI50,[1],> 10 µM (inactive)
same,GI50,[2],57.5 µM (inactive)
same,GI50,[54],> 10 µM (inactive)
same,GI50,[55],19 µM (inactive)
same,GI50,[3],> 100 µM (inactive)
same,GI50,[4],> 100 µM (inactive)
same,GI50,[5],> 100 µM (inactive)
same,GI50,[6],> 100 µM (inactive)
same,GI50,[7],21.9 µM (inactive)
same,GI50,[8],52.1 µM (inactive)
same,GI50,[9],> 100 µM (inactive)
same,GI50,[10],> 100 µM (inactive)
same,GI50,[11],> 100 µM (inactive)
same,GI50,[13],> 100 µM (inactive)
same,GI50,[14],38.5 µM (inactive)
same,GI50,[15],> 100 µM (inactive)
same,GI50,[16],> 100 µM (inactive)
same,GI50,[17],> 100 µM (inactive)
same,GI50,[18],> 100 µM
same,GI50,[19],54.6 µM (inactive)
same,GI50,[20],> 100 µM (inactive)
same,GI50,[21],> 100 µM (inactive)
same,GI50,[22],> 100 µM (inactive)
same,GI50,[23],> 100 µM (inactive)
same,GI50,[24],49.5 µM (inactive)
same,GI50,[25],> 100 µM (inactive)
same,GI50,[28],28.9 µM (inactive)
same,GI50,[29],> 100 µM (inactive)
same,GI50,[30],28.8 µM (inactive)
same,GI50,[31],> 100 µM (inactive)
same,GI50,[32],32.1 µM (inactive)
same,GI50,[33],> 100 µM (inactive)
same,GI50,[34],40.3 µM (inactive)
same,GI50,[35],> 100 µM (inactive)
same,GI50,[36],> 100 µM (inactive)
same,GI50,[56],> 100 µM (inactive)
same,GI50,[37],58.9 µM (inactive)
same,GI50,[57],> 10 µM (inactive)
same,GI50,[39],> 100 µM (inactive)
same,GI50,[58],43.9 µM (inactive)
same,GI50,[40],> 100 µM (inactive)
same,GI50,[41],> 100 µM (inactive)
same,GI50,[42],> 100 µM (inactive)
same,GI50,[43],> 100 µM (inactive)
same,GI50,[44],> 100 µM (inactive)
same,GI50,[45],> 100 µM (inactive)
same,GI50,[46],92.3 µM (inactive)
same,GI50,[47],87.7 µM (inactive)
same,GI50,[48],47.6 µM (inactive)
same,GI50,[49],49.2 µM (inactive)
same,GI50,[50],> 100 µM (inactive)
same,GI50,[52],45.3 µM (inactive)
same,GI50,[53],> 100 µM (inactive)
